# Data reported in patent US20250268902A1, “THERAPEUTIC METHODS” (CeleCor Therapeutics, Inc., priority 2021, published 2025).
# Like-named read-outs stand apart in the source and are kept apart here.
# Legend:
# [1] = system: platelet aggregation to adenosine diphosphate (ADP; 20 μM); assay: Inhibition of platelet aggregation (IPA) to ADP (20 μM) after SC injection in healthy volunteers and stable CAD patients on aspirin; type: in vivo, human; conditions: for mean±SD IPA / IPA: 15 minutes after injection; for IPA: stable CAD patients on aspirin
# Description: Sequentially, healthy volunteers (HV) and then patients with stable coronary disease (CAD) receiving aspirin received escalating doses of RUC-4 or placebo in a sentinel dose, randomized, blinded fashion. Inhibition of platelet aggregation (IPA) to adenosine diphosphate (ADP; 20 μM), RUC-4 blood levels, laboratory evaluations, and clinical assessments were made through 24 hours and at 7 days. Doses were increased until a dose that produced ≥80% IPA within 15 minutes, with return toward baseline within 4 hours was achieved. VerifyNow (VN) was also measured in a subset of patients with stable CAD.
# platelet aggregation = assay: Light transmission aggregometry (LTA) with activators ADP, iso-TRAP, arachidonic acid; type: cell-based
# Text: Light transmission aggregometry (LTA) is considered the gold standard assay to assess the potency of antiplatelet agents, such as Compound (I), because of its association with clinical outcomes.
# [2] = system: agglutination of fibrinogen-coated beads by activated platelets; assay: VerifyNow ADP+PGE1, iso-TRAP and base channel assays; type: cell-based
# Description: VerifyNow (VN) assays (Instrumentation Laboratories, Bedford, MA) are whole-blood, cartridge-based, and automated, and produce results within 15 minutes of blood draw. They are based on the agglutination of fibrinogen-coated beads by platelets activated by different agonists. Commercially available VN assays are designed to study the antiplatelet effects of aspirin (VN Aspirin cartridge; arachidonic acid activator) or P2Y12 antagonists (VN PRUTest cartridge and VN P2Y12 cartridge; ADP+PGE1 activator/inhibitor combination). The modified thrombin receptor activating peptide (iso-TRAP) is included in a separate reaction chamber (in addition to the ADP+PGE1 reaction chamber) in both the PRUTest and P2Y12 cartridges, and the P2Y12 cartridges further include a ‘BASE channel’ reaction chamber in which a PAR-1 activating peptide (iso-TRAP) at higher concentrations is combined with a PAR-4 activating peptide (PAR-4 AP) to achieve potent activation that can overcome the effects of P2Y12 antagonists.
# VerifyNow ADP+PGE1, iso-TRAP, and base channel assays may be used to report Compound (1)-mediated inhibition in near real-time. VN assays can be used to help deconvolute antiplatelet effects of αIIbβ3 antagonists versus P2Y12 antagonists. […] The BASE channel assay was used to monitor the pharmacodynamic effects of Compound (1) independent of any P2Y12 inhibitors.
# [3] = system: platelets in whole blood (VN isoTRAP and ADP+PGE1 channels); assay: In vitro VerifyNow IIb/IIIa and PRU cartridges in whole blood from healthy volunteers; type: cell-based, human; conditions: 30-900 nM, 10 minutes at room temperature
# Description: Whole blood anticoagulated with either sodium citrate (0.32%) or PPACK ([…]) from healthy volunteers who were either taking or not taking daily aspirin was treated in vitro with Compound (I) (RUC-4) to achieve final whole blood concentrations between 30 and 900 nM. Blood was incubated for 10 minutes at room temperature and then tested with either the IIb/IIIa or PRU cartridge.
# [4] = system: PAR1/PAR4-induced platelet aggregation (BASE Channel); assay: VerifyNow P2Y12 assay BASE channel platelet inhibition in STEMI patients (CEL-02 trial); type: in vivo, human; conditions: for inhibition at 0.075 mg/kg / inhibition at 0.09 mg/kg / inhibition at 0.11 mg/kg: Homo sapiens, Platelet; for inhibition at 0.075 mg/kg: 0.075 mg/kg SC; for inhibition at 0.09 mg/kg: 0.090 mg/kg SC; for inhibition at 0.11 mg/kg: 0.11 mg/kg SC
# Text: The open-label, dose escalating, phase 2, CEL-02 trial set out to assess the pharmacodynamics (PD), pharmacokinetics (PK), safety and tolerability of RUC-4 in STEMI patients treated with aspirin and ticagrelor in the ambulance undergoing primary percutaneous coronary intervention (pPCI). STEMI patients presenting for pPCI at the St. Antonius Hospital Nieuwegein, the Netherlands, received a single, weight-adjusted, subcutaneous injection of RUC-4 before coronary angiography. After assessment of every 8 evaluable patients, the dose was escalated to reach an optimal dose for platelet inhibition. All patients were concomitantly treated with aspirin, ticagrelor and unfractionated heparin (UFH)(5000 IU) in the ambulance. Additional UFH during PCI was only administered when ACT was <200 seconds (2500-5000 IU). Blood samples for (PD) and (PK) were taken before RUC-4 administration, and 15, 45, 60, 90, 120, 180, and 240 minutes thereafter. Platelet inhibition was measured by the VerifyNow P2Y12 assay BASE channel which uses a protease activated receptor-1 (PAR-1) peptide (iso-TRAP) and a PAR-4 activating peptide as agonists, overriding platelet inhibition by oral P2Y12 inhibitors.
smiles,measurement,setting,value
NCC(=O)Nc1cncc(-c2nn3c(=O)cc(N4CCNCC4)nc3s2)c1 [RUC-4],mean±SD IPA,"[1]; healthy volunteers, 0.05 mg/kg SC, n=6",71.8±15.0%
same,mean±SD IPA,"[1]; healthy volunteers, 0.075 mg/kg SC, n=6",84.7±16.7%
same,time over which IPA diminished,"[1]; healthy volunteers, in all cases, after SC injection",90 to 120 min
same,IPA,"[1]; 0.04 mg/kg SC, n=2",53.6±17.0%
same,IPA,"[1]; 0.05 mg/kg SC, n=6",76.9±10.6%
same,IPA,"[1]; 0.075 mg/kg SC, n=18",88.9±12.7%
same,inhibition of AA (arachidonic acid) induced LTA,platelet aggregation,dramatically inhibits
same,inhibition of ADP induced LTA,platelet aggregation,dramatically inhibits
same,inhibition of VN ADP+PGE1 assay,[2],dramatically inhibits
same,inhibition of VN base channel assay,[2],dramatically inhibits
same,inhibition of VN iso-TRAP assay,[2],dramatically inhibits
same,inhibition of the VN isoTRAP channels,[3]; IIb/IIIa and PRU cartridges,dose-dependent inhibition
same,inhibition of the VN ADP+PGE1 channel,[3]; PRU cartridge,dose-dependent inhibition
same,inhibition at 0.075 mg/kg,"[4]; 0.25 h, 15 minutes post-dose, n=8, with aspirin, ticagrelor, UFH, read-out: maximal platelet inhibition, mean [SD]",83.7%
same,inhibition at 0.09 mg/kg,"[4]; 0.25 h, 15 minutes post-dose, n=9, with aspirin, ticagrelor, UFH, read-out: maximal platelet inhibition, mean [SD]",89.6%
same,inhibition at 0.11 mg/kg,"[4]; 0.25 h, 15 minutes post-dose, n=10, with aspirin, ticagrelor, UFH, read-out: maximal platelet inhibition, mean [SD]",92.5%
same,inhibition at 0.075 mg/kg,"[4]; 2 h, 120 minutes post-dose, n=8, read-out: platelet inhibition, mean (SD)",17.9%
same,inhibition at 0.09 mg/kg,"[4]; 2 h, 120 minutes post-dose, n=9, read-out: platelet inhibition, mean (SD)",22.6%
same,inhibition at 0.11 mg/kg,"[4]; 2 h, 120 minutes post-dose, n=10, read-out: platelet inhibition, mean (SD)",31.6%
same,time to maximal platelet function inhibition,[4]; single-dose subcutaneous,≤ 15 min
same,time to return of platelet function,[4]; single-dose subcutaneous,≤ 120 min
CC(=O)Oc1ccccc1C(=O)O [aspirin],effect of aspirin on IPA,[1]; subjects given RUC-4 SC,did not affect
same,effect of aspirin on RUC-4 blood levels,[1]; subjects given RUC-4 SC,did not affect
same,inhibition of ADP induced LTA,platelet aggregation,does not significantly inhibit
same,inhibition of iso-TRAP induced LTA,platelet aggregation,does not significantly inhibit
same,inhibition of VN ADP+PGE1 assay,[2],does not inhibit
same,inhibition of VN base channel assay,[2],does not inhibit
same,inhibition of VN iso-TRAP assay,[2],does not inhibit
CCCSc1nc(N[C@@H]2C[C@H]2c2ccc(F)c(F)c2)c2nnn([C@@H]3C[C@H](OCCO)[C@@H](O)[C@H]3O)c2n1 [ticagrelor],inhibition of iso-TRAP induced LTA,platelet aggregation,slightly inhibits
same,inhibition of VN ADP+PGE1 assay,[2],dramatically inhibits
same,inhibition of VN base channel assay,[2],does not inhibit
same,inhibition of VN iso-TRAP assay,[2],slightly inhibits
